In paper PMC7865522, “Analyzing Kinase Similarity in Small Molecule and Protein Structural Space to Explore the Limits of Multi-Target Screening” (Molecules, 2021):
Several values for one entry are separate records, joined by “and”; a condition that tells them apart may be missing. Equal entries are not always repeated.

How the values were obtained:
Assay type in all cases: biochemical
ErbB2 = biological target: T1, ErbB2 (Homo sapiens, UniProt P04626); test: Eurofins in vitro kinase inhibition assay
T1 construct: purchased DiscoverX (KINOMEscan service); host or cells: E. coli BL21-derived host (T7 phage) or HEK-293
Outline: (§1)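 Read-out is percent inhibition of control activity, given as mean (SD), with each compound tested at 20 µM. EGFR, ErbB2 and BRAF phosphorylation of a substrate analog was measured in the presence of ATP, while PI3K product PIP3 was quantified by HTRF competition with biotinylated PIP3.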

BRAF = biological target: T2, BRAF (Homo sapiens, UniProt P15056); test: Eurofins in vitro kinase inhibition assay; settings: 20 µM; Table 3; read-out: % inhib. at 20 µM, BRAF (Eurofins), printed as symbol
T2 construct: purchased DiscoverX (KINOMEscan service); host or cells: E. coli BL21-derived host (T7 phage) or HEK-293
Outline: as §1

EGFR-L858R/T790M = biological target: T3, EGFR-L858R/T790M (Homo sapiens, UniProt P00533, L858R/T790M); test: HTRF KinEASE-TK IC50 determination (Rauh Lab); settings: ATP at Km (4 µM); read-out: IC50, EGFR L858R/T790M double mutant
T3 construct: purchased Carna Biosciences lot12CBS-0765B
Method: (§2) IC 50 determinations for EGFR, its mutants and ErbB2-insYVMA (Carna Biosciences, lot13CBS-0005K for EGFR-wt; Carna, lot13CBS-0537B for EGFR-L858R; Carna, lot12CBS-0765B for EGFR-L858R/T790M; and ProQinase, lot1525-0000-1/003 for ErbB2-insYVMA) were performed with the HTRF KinEASE-TK assay from Cisbio according to the manufacturer’s instructions. Briefly, the amount of kinase in each reaction well was set to 0.60 ng EGFR-wt (0.67 nM), 0.10 ng EGFR-L858R (0.11 nM), 0.07 ng EGFR-T790M/L858R (0.08 nM), or 0.01 ng ErbB2-insYVMA (0.01 nM). An artificial substrate peptide (TK-substrate from Cisbio) was phosphorylated by EGFR or ErbB2. After completion of the reaction (reaction times: 25 min for EGFR-wt, 15 min for L858R, 20 min for L858R/T790M, and 40 min for ErbB2-insYVMA), the reaction was stopped by addition of buffer containing EDTA as well as an anti-phosphotyrosine antibody labeled with europium cryptate and streptavidin labeled with the fluorophore XL665. FRET between europium cryptate and XL665 was measured after an additional hour of incubation to quantify the phosphorylation of the substrate peptide. […] Kinase and inhibitor were preincubated for 30 min before the reaction was started by addition of ATP and substrate peptide. An EnVision multimode plate reader (Perkin Elmer) was used to measure the fluorescence of the samples at 620 nm (Eu ^3+ -labeled antibody) and 665 nm (XL665-labeled streptavidin) 50 µs after excitation at 320 nm. The quotient of both intensities for reactions made with eight different inhibitor concentrations was then analyzed using the Quattro Software Suite for IC 50 -determination. Each reaction was performed in duplicate, and at least three independent determinations of each IC 50 were made.

EGFR-L858R = biological target: T4, EGFR-L858R (Homo sapiens, UniProt P00533, L858R); test: HTRF KinEASE-TK IC50 determination (Rauh Lab); settings: ATP at Km (9 µM); read-out: IC50, EGFR L858R mutant
T4 construct: purchased Carna Biosciences lot13CBS-0537B
Method: as §2

ErbB2-insYVMA = biological target: T5, ErbB2-insYVMA (Homo sapiens, UniProt P04626, INS775YVMA); test: HTRF KinEASE-TK IC50 determination (Rauh Lab); settings: ATP at Km (6 µM); racemate tested; read-out: IC50 ± s.d., ErbB2insYVMA
T5 construct: purchased ProQinase lot1525-0000-1/003
Method: as §2

T5 sequence (P04626 with tags, fused parts or gaps INS775YVMA limits assumed): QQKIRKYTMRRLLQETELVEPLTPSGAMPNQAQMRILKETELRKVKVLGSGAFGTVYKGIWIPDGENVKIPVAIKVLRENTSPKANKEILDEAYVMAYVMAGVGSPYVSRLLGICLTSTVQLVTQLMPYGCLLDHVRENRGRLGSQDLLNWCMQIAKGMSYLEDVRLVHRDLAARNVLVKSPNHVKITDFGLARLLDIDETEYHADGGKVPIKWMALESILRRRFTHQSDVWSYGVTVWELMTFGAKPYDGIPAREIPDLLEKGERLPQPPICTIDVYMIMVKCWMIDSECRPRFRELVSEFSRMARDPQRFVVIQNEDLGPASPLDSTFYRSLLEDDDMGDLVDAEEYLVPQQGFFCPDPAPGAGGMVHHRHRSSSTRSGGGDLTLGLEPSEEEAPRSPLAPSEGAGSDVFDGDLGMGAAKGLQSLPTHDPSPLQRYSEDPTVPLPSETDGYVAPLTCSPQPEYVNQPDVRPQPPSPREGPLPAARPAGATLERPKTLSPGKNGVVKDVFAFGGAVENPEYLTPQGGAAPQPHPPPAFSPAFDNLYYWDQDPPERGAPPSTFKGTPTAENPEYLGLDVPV
T1 sequence (P04626 23-1255): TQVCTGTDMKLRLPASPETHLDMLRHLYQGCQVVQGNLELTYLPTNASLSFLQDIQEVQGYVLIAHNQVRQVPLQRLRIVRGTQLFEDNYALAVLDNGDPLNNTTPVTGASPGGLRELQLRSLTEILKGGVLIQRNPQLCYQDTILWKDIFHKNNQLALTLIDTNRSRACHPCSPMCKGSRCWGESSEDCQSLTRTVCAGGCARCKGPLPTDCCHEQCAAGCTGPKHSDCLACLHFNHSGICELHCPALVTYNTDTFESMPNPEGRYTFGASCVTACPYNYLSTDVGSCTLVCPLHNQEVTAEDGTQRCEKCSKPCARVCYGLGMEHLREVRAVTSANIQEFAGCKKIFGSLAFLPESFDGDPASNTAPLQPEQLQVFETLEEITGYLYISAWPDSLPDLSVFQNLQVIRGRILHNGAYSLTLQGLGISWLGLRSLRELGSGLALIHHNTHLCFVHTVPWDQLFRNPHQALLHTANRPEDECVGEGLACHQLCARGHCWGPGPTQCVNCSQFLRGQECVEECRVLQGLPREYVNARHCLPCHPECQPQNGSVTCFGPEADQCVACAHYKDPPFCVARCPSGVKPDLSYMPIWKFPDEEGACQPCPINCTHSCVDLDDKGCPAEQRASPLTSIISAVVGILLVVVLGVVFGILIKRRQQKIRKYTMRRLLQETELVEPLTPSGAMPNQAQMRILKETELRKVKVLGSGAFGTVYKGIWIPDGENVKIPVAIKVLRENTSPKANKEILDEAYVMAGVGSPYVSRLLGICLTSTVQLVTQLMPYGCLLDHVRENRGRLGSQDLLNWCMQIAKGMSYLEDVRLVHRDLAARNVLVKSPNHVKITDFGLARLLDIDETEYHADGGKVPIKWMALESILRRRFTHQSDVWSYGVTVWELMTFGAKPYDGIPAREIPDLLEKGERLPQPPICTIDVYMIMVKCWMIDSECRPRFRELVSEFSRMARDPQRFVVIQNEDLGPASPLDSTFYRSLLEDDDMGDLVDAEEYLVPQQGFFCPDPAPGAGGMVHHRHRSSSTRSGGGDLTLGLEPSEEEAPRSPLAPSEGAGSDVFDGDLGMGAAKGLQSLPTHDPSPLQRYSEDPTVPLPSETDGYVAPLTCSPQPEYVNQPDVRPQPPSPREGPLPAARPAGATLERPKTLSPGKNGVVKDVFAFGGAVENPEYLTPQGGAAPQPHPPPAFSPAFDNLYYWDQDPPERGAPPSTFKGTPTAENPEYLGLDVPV
T3 sequence (P00533 25-1210 T790M/L858R): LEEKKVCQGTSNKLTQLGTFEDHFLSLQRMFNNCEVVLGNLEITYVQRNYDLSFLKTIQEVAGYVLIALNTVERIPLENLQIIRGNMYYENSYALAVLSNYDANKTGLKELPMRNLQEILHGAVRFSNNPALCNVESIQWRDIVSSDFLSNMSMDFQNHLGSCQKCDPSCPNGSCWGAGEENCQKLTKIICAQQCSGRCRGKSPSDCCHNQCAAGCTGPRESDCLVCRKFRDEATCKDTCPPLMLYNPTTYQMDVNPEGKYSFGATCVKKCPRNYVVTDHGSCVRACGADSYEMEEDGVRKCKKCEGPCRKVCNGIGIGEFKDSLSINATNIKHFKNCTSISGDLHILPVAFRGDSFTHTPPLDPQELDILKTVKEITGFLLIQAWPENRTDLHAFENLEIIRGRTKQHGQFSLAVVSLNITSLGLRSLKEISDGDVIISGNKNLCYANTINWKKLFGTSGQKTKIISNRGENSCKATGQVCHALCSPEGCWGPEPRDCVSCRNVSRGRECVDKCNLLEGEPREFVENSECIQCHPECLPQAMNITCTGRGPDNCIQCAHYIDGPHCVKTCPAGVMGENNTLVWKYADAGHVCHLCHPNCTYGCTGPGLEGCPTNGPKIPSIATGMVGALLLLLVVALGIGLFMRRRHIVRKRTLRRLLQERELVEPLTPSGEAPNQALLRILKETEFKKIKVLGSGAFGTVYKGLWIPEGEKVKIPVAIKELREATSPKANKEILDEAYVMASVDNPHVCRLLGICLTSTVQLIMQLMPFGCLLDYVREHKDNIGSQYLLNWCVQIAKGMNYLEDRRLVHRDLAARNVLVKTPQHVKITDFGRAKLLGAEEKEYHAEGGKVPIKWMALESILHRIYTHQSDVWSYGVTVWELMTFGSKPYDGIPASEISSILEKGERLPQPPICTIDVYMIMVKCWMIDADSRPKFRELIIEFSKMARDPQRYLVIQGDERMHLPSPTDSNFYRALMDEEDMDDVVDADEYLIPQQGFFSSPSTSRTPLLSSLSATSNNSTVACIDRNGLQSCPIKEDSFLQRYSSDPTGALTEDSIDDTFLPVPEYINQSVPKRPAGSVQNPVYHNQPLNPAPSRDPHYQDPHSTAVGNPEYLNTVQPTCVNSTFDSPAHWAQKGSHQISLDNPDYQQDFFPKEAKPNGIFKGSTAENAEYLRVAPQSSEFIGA
T2 sequence (P15056 whole entry): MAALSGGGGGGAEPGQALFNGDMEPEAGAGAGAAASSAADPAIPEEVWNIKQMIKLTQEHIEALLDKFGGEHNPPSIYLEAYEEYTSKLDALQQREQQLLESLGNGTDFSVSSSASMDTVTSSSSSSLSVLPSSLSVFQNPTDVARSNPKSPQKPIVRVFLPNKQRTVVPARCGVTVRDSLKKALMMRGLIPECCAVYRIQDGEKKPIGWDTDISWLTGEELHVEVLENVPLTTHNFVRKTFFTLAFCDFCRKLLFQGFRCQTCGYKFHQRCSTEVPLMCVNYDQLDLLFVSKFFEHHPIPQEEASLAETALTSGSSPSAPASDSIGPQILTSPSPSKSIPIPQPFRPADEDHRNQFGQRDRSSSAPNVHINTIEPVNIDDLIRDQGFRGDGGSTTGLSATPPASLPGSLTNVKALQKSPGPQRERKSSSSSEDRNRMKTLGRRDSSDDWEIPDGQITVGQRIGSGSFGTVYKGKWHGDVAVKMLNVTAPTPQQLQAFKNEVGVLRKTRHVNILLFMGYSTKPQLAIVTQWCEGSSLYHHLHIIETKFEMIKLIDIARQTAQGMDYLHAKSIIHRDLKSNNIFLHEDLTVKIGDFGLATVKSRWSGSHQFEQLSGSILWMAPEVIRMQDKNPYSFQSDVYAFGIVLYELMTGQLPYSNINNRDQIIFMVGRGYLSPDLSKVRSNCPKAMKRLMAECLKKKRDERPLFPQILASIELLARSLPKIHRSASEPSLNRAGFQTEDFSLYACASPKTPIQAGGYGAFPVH
T4 sequence (P00533 25-1210 L858R): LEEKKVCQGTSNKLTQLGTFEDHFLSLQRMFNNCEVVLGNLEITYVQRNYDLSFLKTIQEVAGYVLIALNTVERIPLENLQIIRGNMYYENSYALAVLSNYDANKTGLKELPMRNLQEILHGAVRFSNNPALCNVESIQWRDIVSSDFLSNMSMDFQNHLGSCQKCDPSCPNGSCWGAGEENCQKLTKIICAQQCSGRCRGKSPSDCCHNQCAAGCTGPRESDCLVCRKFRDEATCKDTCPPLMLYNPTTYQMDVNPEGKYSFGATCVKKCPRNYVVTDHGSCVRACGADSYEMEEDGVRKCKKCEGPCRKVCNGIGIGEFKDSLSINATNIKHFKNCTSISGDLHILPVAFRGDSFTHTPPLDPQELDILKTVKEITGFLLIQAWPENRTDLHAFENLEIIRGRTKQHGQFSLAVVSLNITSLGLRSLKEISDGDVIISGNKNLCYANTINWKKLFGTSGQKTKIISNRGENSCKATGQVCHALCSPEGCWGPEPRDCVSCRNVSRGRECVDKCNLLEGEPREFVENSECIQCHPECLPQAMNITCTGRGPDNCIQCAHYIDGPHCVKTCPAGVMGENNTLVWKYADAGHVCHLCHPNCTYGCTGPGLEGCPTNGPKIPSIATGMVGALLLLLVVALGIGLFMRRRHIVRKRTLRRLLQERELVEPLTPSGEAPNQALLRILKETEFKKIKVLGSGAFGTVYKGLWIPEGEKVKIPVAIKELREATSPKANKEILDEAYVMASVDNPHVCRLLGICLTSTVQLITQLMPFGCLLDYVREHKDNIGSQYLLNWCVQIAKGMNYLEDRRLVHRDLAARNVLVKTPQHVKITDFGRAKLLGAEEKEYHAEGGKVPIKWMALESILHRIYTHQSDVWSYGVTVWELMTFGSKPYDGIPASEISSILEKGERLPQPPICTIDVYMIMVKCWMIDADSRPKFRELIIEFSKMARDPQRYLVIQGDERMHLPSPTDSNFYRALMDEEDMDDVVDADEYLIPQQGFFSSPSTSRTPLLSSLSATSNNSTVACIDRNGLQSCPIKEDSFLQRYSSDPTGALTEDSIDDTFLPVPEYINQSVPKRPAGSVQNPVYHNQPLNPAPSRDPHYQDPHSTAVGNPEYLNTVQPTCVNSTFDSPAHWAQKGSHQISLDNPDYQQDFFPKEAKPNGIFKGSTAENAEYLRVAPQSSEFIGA

inhibition at 20 µM (ErbB2; 20 µM, Table 3, read-out: % inhib. at 20 µM, ErbB2 (Eurofins), printed as symbol): < 50%
% inhibition of control activity, ErbB2 (Eurofins) (ErbB2; compound 20 µM, mean (SD), above 50% significant, 25-50% weak): -1.3 (1.8) % inhibition
inhibition at 20 µM (BRAF): < 50%
IC50 (EGFR-L858R/T790M): > 10000 nM
IC50 (EGFR-L858R): 2350 ± 397 nM
IC50 (ErbB2-insYVMA): < 324 nM and 220 nM
SMILES: COC(=O)Cc1ccc(Oc2ncnc3sc4c(c23)CC[C@@H](C)C4)cc1 (racemic) [DS39984]
